US6555533B2, “Use of certain substituted caprolactams in treating tumors” (Novartis AG, priority 1998, dated 2003)
Like-named read-outs stand apart in the source and are kept apart here. Marks after values point to notes of the source that are not given here.

Legend:
[1] = system: MDA-MB-435 tumor xenografts; assay: MDA-MB-435 breast carcinoma xenograft model; assay type: in vivo, athymic (nu/nu) mice
Method: Positive controls are carried out with doxorubicin administered 3 times per week i.v.
The following results were obtained for compounds of Ex.1-Ex.12 tested against MDA-MB-435 tumor xenografts 3×/week for 3 weeks: […]

[2] = system: MDA-MB-435 breast carcinoma; assay: Anchorage Dependent Growth Monolayer Assay (ADGMA), MDA-MB-435; assay type: cell-based, human; details: Homo sapiens, MDA-MB-435, 72 h; 3-day exposure, MTS readout; read-out: IC50 (average±S.D.) MDA-MB-435
Method: (§1) As indicated above, all of the compounds of formula I, and their corresponding pharmaceutically acceptable acid addition salts, are anti-tumor agents and are, therefore, useful in inhibiting the growth of various lymphomas, sarcomas, carcinomas, myelomas, and leukemia cell lines.
(§2) The ADGMA compares the number of viable cells following a 3-day exposure to a test compound relative to a number of cells present at the time the test compound was added. […] The absorbance at 490 nm (A490) of the formazan derivative is proportional to the number of viable cells. The IC50 for a test compound is the concentration of compound required to reduce the final cell number to 50% of the final control cell number. If cell proliferation is inhibited, the assay further defines compounds as cytostatic (cell number after 3-day compound incubation >cell number at time of compound addition) or cytotoxic (cell number after 3-day compound incubation <cell number at time of compound addition).
The MDA-MB-435 breast carcinoma line was obtained from the American Type Culture Collection (ATCC) and used between passages 4-20 following thawing. MDA-MB-435 breast carcinoma was maintained and plated in DME/F12 medium containing 10% fetal bovine serum, 15 mM HEPES (pH=7.4), 100 units/mL penicillin, and 100 μg/mL streptomycin.
(§3) Cell lines are trypsinized and counted using a Coulter counter to determine plating densities. Cells are then plated in their respective maintenance media (100 μL/well) in 96 well plates at the following densities: MDA-MB-435, 3,000 cells/well; A549 and HCT-116, 700 cells/well; are PC-3, 2500 cells/well. The number of cells plates as determined in preliminary experiments, results in cell densities of 75-90% of confluency by 4 days after plating. Initial cell densities, assayed one day after plating, are roughly 0.15-0.20 absorbance units greater than the media blank. Ninety-six well plates are seeded on day 0 and the test compounds are added on day 1. A control plate is created for each cell line that receives media only in row A and cells in row B. One day following plating, test compounds are added (in a final volume of 100 μL) to the test plates. Control plates receive 10 μL MTS mixture (prepared fresh on day of addition to cell plates at a ratio of 10 μL of a 0.92 mg/mL solution of PMS to a 190 μL of a 2 mg/mL solution of MTS) and 100 μL media. A490 of control plates is read 4 h after MTS addition to determine initial cell density values for each cell line. Three days after addition of test compound, 10 μL/well of MTS mixture is added to the test plates and A490 is read 4 h later. A490 values for wells containing cells are corrected for media absorbance, then normalized to initial density readings to determine percent net growth. IC50 values are determined from graphs of percent net growth as a function of compound concentration. Percent net growth is calculated as (Cell+Drug A490−Initial A490/Cell+Drug Vehicle A490−Initial A490).

[3] = system: HCT-116 tumor xenografts; assay: HCT-116 colon carcinoma xenograft model; assay type: in vivo, athymic (nu/nu) mice
Method: Positive controls are carried out with 5-fluorouracil administered 1 time per week i.v.

[4] = system: PC-3 tumor xenografts; assay: PC-3 prostate carcinoma xenograft model; assay type: in vivo, athymic (nu/nu) mice
[5] = system: A549 tumor xenografts
Description: Utilizing this model, one can measure the ability of test compounds to inhibit the growth of human tumor xenografts growing subcutaneously (s.c.) in athymic nude mice. The histologic tumor types employed were MDA-MB-435 breast, A549 non-small cell lung, HCT-116 colon and PC-3 prostate carcinomas.
A549 non-small cell lung carcinoma xenograft model: Briefly, 10 million cells were implanted s.c. into the right flank of athymic (nu/nu) mice, and were allowed to grow until a mass of approximately 120 mm^3 was established. The test compounds are administered three times per week intravenously (i.v.) for three weeks in 5% dextrose, 10%DMSO in water. The test compounds are administered in dose-response fashion in order to evaluate and document the full potential range of activity (efficacy and toxicity) for a given compound. Positive controls are carried out with mitomycin C administered 3 times per week intraperitioneally (i.p.).
Toxicity was monitored by recording average group body weights twice weekly, and by daily observation of general health. Efficacy was monitored by taking measurements of tumor length, width, and depth weekly using digital calipers coupled to automated data collectors. Mean tumor volume (MTV) at initiation of therapy was subtracted from final MTV in order to express the actual tumor growth during treatment (ΔMTV). Anti-tumor activity was expressed as %T/C (ΔMTV of treated group÷ΔMTV of control group×100). Regressions were calculated using the formula: (T/T0−1)×100%, where T is the tumor volume for the treatment group at the end of the experiment, and T0 is the tumor volume at the beginning of the experiment. Statistical significance was evaluated using a one-tailed Student's t-test (p<0.05).

[6] = system: PC-3 prostate carcinoma; assay: Anchorage Dependent Growth Monolayer Assay (ADGMA), PC-3; assay type: cell-based, human; details: Homo sapiens, 72 h; 3-day exposure, MTS readout; read-out: IC50 (average±S.D.) PC-3
Method: as §1, §2
(§4) A549, HCT-116 and PC-3 cells were maintained in RPMI 1640 containing 5% FBS, […], 1 nM β-estradiol, 1 nM testosterone, 100 units/mL penicillin and 100 ug/mL streptomycin.
as §3

[7] = system: A549 non-small cell lung carcinoma; assay: Anchorage Dependent Growth Monolayer Assay (ADGMA), A549; assay type: cell-based, human; details: Homo sapiens, A549, 72 h; 3-day exposure, MTS readout; read-out: IC50 (average±S.D.) A549
Method: as §1, §2, §4, §3

[8] = system: HCT-116 colon carcinoma; assay: Anchorage Dependent Growth Monolayer Assay (ADGMA), HCT-116; assay type: cell-based, human; details: Homo sapiens, HCT-116, 72 h; 3-day exposure, MTS readout; read-out: IC50 (average±S.D.) HCT-116
Method: as §1, §2, §4, §3

[9] = 10 μmol/kg i.v. 3×/week for 3 weeks
[10] = 33 μmol/kg i.v. 3×/week for 3 weeks
[11] = 100 μmol/kg i.v. 3×/week for 3 weeks
[12] = 2 mg/kg i.v. 3 times per week (positive control)

CO[C@@H](C(=O)N[C@H]1CC[C@@H](OC(=O)CCc2ccccc2)CNC1=O)[C@H](O)[C@@H](O)[C@H](O)/C=C/C(C)(C)C [Ex. 4, (2R, 3R, 4S, 5R, 6E)-3,4,5-Trihydroxy-2-methoxy-8,8-dimethyl-N-[(3S, 6R)-hexahydro-2-oxo-6-(1-oxo-3-phenylpropoxy)-2H-azepin-3-yl]non-6-enamide]
% T/C [1, 9]: 53* % | Dead/Total [1, 9]: 0/8 | % T/C [1, 10]: 12* % | Dead/Total [1, 10]: 0/8 | % regression [1, 11]: 58 regression* % | Dead/Total [1, 11]: 0/8 | Δ MTV [1, 11]: −23 mm^3 | IC50 [2]: 12 ± 14 nM | % T/C [3, 9]: 70* % | Dead/Total [3, 9]: 0/8 | Δ MTV [3, 9]: 280 mm^3 | % T/C [3, 10]: 22* % | Dead/Total [3, 10]: 0/8 | Δ MTV [3, 10]: 87 mm^3 | % T/C [3, 11]: 11* % | Dead/Total [3, 11]: 1/8 | Δ MTV [3, 11]: 44 mm^3 | % T/C [4, 9]: 77% | Dead/Total [4, 9]: 0/8 | Δ MTV [4, 9]: 1722 mm^3 | % T/C [4, 10]: 29% | Dead/Total [4, 10]: 0/8 | Δ MTV [4, 10]: 638 mm^3 | % T/C [4, 11]: 4* % | Dead/Total [4, 11]: 0/8 | Δ MTV [4, 11]: 100 mm^3 | % T/C [5, 10]: 17* % | Dead/Total [5, 10]: 0/8 | Δ MTV [5, 10]: 13 mm^3 | % regression [5, 11]: 22 regression* % | Dead/Total [5, 11]: 1/8 | Δ MTV [5, 11]: −10 mm^3 | IC50 [6]: 7 ± 4 nM | IC50 [7]: 20 ± 9 nM | IC50 [8]: 7 ± 3 nM

CO[C@@H](C(=O)N[C@H]1CC[C@@H](OC(=O)CCc2cccnc2)CNC1=O)[C@H](O)[C@@H](O)[C@H](O)/C=C/C(C)(C)C [Ex. 5, (2R, 3R, 4S, 5R, 6E)-3,4,5-Trihydroxy-2-methoxy-8,8-dimethyl-N-[(3S, 6R)-hexahydro-2-oxo-6-(1-oxo-3-[3-pyridyl]propoxy)-2H-azepin-3-yl]non-6-enamide]
% T/C [1, 9]: 92% | Dead/Total [1, 9]: 0/8 | % T/C [1, 10]: 44* % | Dead/Total [1, 10]: 0/8 | % T/C [3, 9]: 93% | Dead/Total [3, 9]: 0/8 | Δ MTV [3, 9]: 376 mm^3 | % T/C [3, 10]: 67* % | Dead/Total [3, 10]: 0/8 | Δ MTV [3, 10]: 270 mm^3 | % T/C [3, 11]: 28* % | Dead/Total [3, 11]: 0/8 | Δ MTV [3, 11]: 111 mm^3 | % T/C [5, 9]: 50% | Dead/Total [5, 9]: 0/8 | Δ MTV [5, 9]: 38 mm^3 | % T/C [5, 10]: 46% | Dead/Total [5, 10]: 0/8 | Δ MTV [5, 10]: 35 mm^3 | % T/C [5, 11]: 24* % | Dead/Total [5, 11]: 0/8 | Δ MTV [5, 11]: 18 mm^3 | IC50 [6]: 348 ± 26 nM | IC50 [7]: 1040 ± 758 nM | IC50 [8]: 464 ± 142 nM

COc1cccc2c1C(=O)c1c(O)c3c(c(O)c1C2=O)C[C@@](O)(C(=O)CO)C[C@@H]3O[C@H]1C[C@H](N)[C@H](O)[C@H](C)O1 [doxorubicin, reference compound]
% T/C [1, 12]: 42* % | Dead/Total [1, 12]: 0/8 | IC50 [2]: 399 ± 314 nM | IC50 [6]: 327 ± 123 nM | IC50 [7]: 504 ± 320 nM | IC50 [8]: 39 ± 6 nM
